Reference: patent US20250195521A1 (Revolution Medicines, Inc., priority 2020, published 2025)
pEC50, pIC50: −log10 of the molar value. Values joined by “and” are separate entries in the source; they are usually repeats but may differ in a detail not shown here. Equal entries are not always repeated.

What was measured:
[1] = test system: Capan-1 cells (K-Ras G12V); experiment: CellTiter-Glo cell viability, Capan-1; assay type: cell-based, human; conditions: Homo sapiens, CAPAN-1, 120 h, K-Ras G12V, 5-day treatment; read-out: Capan-1 Cell Viability IC50
Outline: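 Viability read by luminescence on day 5 after direct compound addition to cells, following ~30 min room-temperature equilibration. Values expressed as percent of mean DMSO signal, curves fitted with a four-parameter logistic model.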

[2] = test system: K-Ras G12C (NCI-H358 cells); experiment: Potency assay: pERK in NCI-H358 cells; assay type: cell-based, human; conditions: Homo sapiens; NCI-H358 cells, 4 hours; read-out: pERK EC50 (H358 KRAS G12C)
Outline: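 Cells plated the day before were exposed for 4 h at 37° C, 5% CO2 to a 10-point, 3-fold DMSO dilution series (10 mM top stock), in duplicate. Phospho-ERK was read by AlphaLISA SureFire Ultra or by In-Cell Western with DRAQ5 DNA stain, and IC50 came from a 4-parameter sigmoidal fit.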

KRAS G12C = KRAS G12C (Homo sapiens (Human), UniProt P01116+P62937, G12C); experiment: Ras-Raf disruption/FRET/MOA assay (BRAF RBD, Cyclophilin A); assay type: biochemical; conditions: read-out: KRAS G12C FRET IC50
Chain of KRAS G12C (P01116-2 other isoform, or with tags, fused parts or gaps G12C): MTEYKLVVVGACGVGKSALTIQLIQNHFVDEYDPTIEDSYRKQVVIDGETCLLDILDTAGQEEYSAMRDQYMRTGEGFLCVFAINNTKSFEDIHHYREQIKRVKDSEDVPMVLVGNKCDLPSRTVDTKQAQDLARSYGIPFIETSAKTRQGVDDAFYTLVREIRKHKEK
Chain of KRAS G12C (P62937 whole entry): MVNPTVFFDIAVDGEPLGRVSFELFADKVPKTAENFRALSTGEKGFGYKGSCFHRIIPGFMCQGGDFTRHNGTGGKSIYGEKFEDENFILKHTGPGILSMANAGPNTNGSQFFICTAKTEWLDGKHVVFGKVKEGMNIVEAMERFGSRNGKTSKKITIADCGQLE
Outline: (§1)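 First, 25 μM Cyclophilin A, 12.5 nM His6-Ras-GMPPNP and 50 nM GST-BRAF RBD are mixed with diluted compound at pH 7.3. Next, 3 h at 25° C. Then 10 nM anti-His Eu-W1024 plus 50 nM anti-GST allophycocyanin for 1.5 h before TR-FRET reading.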

KRAS G12V = KRAS G12V (Homo sapiens (Human), UniProt P01116+P62937, G12V); experiment: as above; assay type: biochemical; conditions: read-out: KRAS G12V FRET IC50
Chain of KRAS G12V (P01116 other isoform, or with tags, fused parts or gaps G12V): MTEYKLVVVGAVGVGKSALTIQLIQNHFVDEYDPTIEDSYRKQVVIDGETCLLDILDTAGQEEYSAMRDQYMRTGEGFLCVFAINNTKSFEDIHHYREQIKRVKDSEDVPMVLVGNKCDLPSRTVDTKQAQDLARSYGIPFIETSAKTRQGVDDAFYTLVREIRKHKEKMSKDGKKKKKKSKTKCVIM
Chain of KRAS G12V (P62937 whole entry): as the sequence (P62937 whole entry) above
Outline: as §1

KRAS G13D = KRAS G13D (Homo sapiens (Human), UniProt P01116+P62937, G13D); experiment: as above; assay type: biochemical; conditions: read-out: KRAS G13D FRET data IC50
Chain of KRAS G13D (P01116 other isoform, or with tags, fused parts or gaps G13D): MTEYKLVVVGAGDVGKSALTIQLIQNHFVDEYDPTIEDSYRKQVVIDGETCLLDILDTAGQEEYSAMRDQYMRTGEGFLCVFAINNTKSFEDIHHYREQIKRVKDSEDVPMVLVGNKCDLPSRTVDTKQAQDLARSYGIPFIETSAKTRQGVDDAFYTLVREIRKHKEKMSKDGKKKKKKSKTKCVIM
Chain of KRAS G13D (P62937 whole entry): as the sequence (P62937 whole entry) above
Outline: as §1

NRAS Q61R = NRAS Q61R (Homo sapiens (Human), UniProt P01111+P62937, Q61R); experiment: as above; assay type: biochemical
Chain of NRAS Q61R (P01111 whole entry Q61R): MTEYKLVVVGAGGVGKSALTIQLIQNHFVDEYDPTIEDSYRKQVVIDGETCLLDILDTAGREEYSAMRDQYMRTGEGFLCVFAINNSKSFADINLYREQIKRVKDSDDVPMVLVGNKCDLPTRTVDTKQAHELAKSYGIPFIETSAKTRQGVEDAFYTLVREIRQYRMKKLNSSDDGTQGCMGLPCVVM
Chain of NRAS Q61R (P62937 whole entry): as the sequence (P62937 whole entry) above
Outline: (§2)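 Ras-GMPPNP (12.5 nM), BRAF RBD (50 nM) and 25 μM Cyclophilin A were incubated with compound for 3 h at 25° C, then detected 1.5 h with anti-His Eu and anti-GST APC; IC50 values follow from the reduced TR-FRET ratio.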

NRAS G12C = NRAS G12C (Homo sapiens (Human), UniProt P01111+P62937, G12C); experiment: as above; assay type: biochemical; conditions: read-out: NRAS G12C FRET data IC50
Chain of NRAS G12C (P01111 whole entry G12C): as the sequence (P01111 whole entry Q61R) above, with G12C, R61Q counted along it
Chain of NRAS G12C (P62937 whole entry): as the sequence (P62937 whole entry) above
Outline: as §2

KRAS G13C = KRAS G13C (Homo sapiens (Human), UniProt P01116+P62937, G13C); experiment: as above; assay type: biochemical; conditions: read-out: KRAS G13C FRET IC50
Chain of KRAS G13C (P01116 other isoform, or with tags, fused parts or gaps G13C): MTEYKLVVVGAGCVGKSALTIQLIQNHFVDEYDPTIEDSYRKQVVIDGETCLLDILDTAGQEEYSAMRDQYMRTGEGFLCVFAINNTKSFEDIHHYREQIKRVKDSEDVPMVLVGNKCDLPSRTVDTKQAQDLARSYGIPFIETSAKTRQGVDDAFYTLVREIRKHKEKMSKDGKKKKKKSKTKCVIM
Chain of KRAS G13C (P62937 whole entry): as the sequence (P62937 whole entry) above
Outline: as §1

NRAS WT = NRAS WT (Homo sapiens (Human), UniProt P01111+P62937); experiment: as above; assay type: biochemical
Chain of NRAS WT (P01111 whole entry): as the sequence (P01111 whole entry Q61R) above, with R61Q counted along it
Chain of NRAS WT (P62937 whole entry): as the sequence (P62937 whole entry) above
Outline: as §2

KRAS Q61H = KRAS Q61H (Homo sapiens (Human), UniProt P01116+P62937, Q61H); experiment: as above; assay type: biochemical
Chain of KRAS Q61H (P01116 other isoform, or with tags, fused parts or gaps Q61H): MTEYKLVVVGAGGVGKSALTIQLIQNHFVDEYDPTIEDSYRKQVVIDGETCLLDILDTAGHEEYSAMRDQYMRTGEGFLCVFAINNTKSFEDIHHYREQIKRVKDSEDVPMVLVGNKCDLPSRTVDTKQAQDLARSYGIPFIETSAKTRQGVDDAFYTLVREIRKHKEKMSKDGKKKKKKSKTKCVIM
Chain of KRAS Q61H (P62937 whole entry): as the sequence (P62937 whole entry) above
Outline: as §1

KRAS G12D = KRAS G12D (Homo sapiens (Human), UniProt P01116+P62937, G12D); experiment: as above; assay type: biochemical; conditions: read-out: KRAS G12D FRET IC50
Chain of KRAS G12D (P01116 other isoform, or with tags, fused parts or gaps G12D): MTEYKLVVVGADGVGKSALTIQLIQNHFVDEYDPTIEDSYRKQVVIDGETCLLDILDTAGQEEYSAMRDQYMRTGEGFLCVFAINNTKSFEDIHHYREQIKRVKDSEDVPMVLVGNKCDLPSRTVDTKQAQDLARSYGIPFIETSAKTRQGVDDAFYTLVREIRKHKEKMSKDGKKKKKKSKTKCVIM
Chain of KRAS G12D (P62937 whole entry): as the sequence (P62937 whole entry) above
Outline: as §1

KRAS G12S = KRAS G12S (Homo sapiens (Human), UniProt P01116+P62937, G12S); experiment: as above; assay type: biochemical; conditions: read-out: KRAS G12S FRET IC50
Chain of KRAS G12S (P01116 other isoform, or with tags, fused parts or gaps G12S): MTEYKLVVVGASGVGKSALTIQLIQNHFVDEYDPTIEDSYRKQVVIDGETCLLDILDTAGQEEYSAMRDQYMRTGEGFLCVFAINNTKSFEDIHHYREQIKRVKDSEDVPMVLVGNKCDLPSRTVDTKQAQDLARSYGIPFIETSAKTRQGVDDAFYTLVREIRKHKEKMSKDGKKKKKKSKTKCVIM
Chain of KRAS G12S (P62937 whole entry): as the sequence (P62937 whole entry) above
Outline: as §1

KRAS WT = KRAS WT (Homo sapiens (Human), UniProt P01116+P62937); experiment: as above; assay type: biochemical; conditions: read-out: KRAS WT FRET data IC50
Chain of KRAS WT (P01116 other isoform, or with tags, fused parts or gaps): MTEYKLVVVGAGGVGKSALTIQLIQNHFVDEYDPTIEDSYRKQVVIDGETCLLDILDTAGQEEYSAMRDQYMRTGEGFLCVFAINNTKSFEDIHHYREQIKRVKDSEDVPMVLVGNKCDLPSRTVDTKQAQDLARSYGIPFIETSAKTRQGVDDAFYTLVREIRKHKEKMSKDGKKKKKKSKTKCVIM
Chain of KRAS WT (P62937 whole entry): as the sequence (P62937 whole entry) above
Outline: as §1

NRAS Q61K = NRAS Q61K (Homo sapiens (Human), UniProt P01111+P62937, Q61K); experiment: as above; assay type: biochemical
Chain of NRAS Q61K (P01111 whole entry Q61K): as the sequence (P01111 whole entry Q61R) above, with R61K counted along it
Chain of NRAS Q61K (P62937 whole entry): as the sequence (P62937 whole entry) above
Outline: as §2

Row | pEC50 [2] | pIC50 (KRAS G12C) | pIC50 (KRAS G12V) | pIC50 (KRAS G13D) | pIC50 (NRAS Q61R) | pIC50 (NRAS G12C) | pIC50 (KRAS G13C) | pIC50 (NRAS WT) | pIC50 (KRAS Q61H) | pIC50 (KRAS G12D) | pIC50 (KRAS G12S) | pIC50 (KRAS WT) | pIC50 (NRAS Q61K) | Compound | pIC50 [1]
1 |  | 7.00 to 8.00 | 7.00 to 8.00 | 6.00 to 7.00 | 6.00 to 7.00 | 7.00 to 8.00 | 6.00 to 7.00 | 6.00 to 7.00 | 6.00 to 7.00 | 6.00 to 7.00 | 6.00 to 7.00 | 6.00 to 7.00 | 6.00 to 7.00 | CCn1c(-c2cccnc2[C@H](C)OC)c2c3cc(ccc31)-c1csc(n1)C[C@H](NC(=O)N1CCN(C)CC1)C(=O)N1CCC[C@H](N1)C(=O)OCC(C)(C)C2 [Compound A265, N-((6^3S,4S,Z)-1^1-ethyl-1^2-(2-((S)-1-methoxyethyl)pyridin-3-yl)-10, 10-dimethyl-5,7-dioxo-6^1,6^2,6^3,6^4,6^5,6^6-hexahydro-1^1H-8-oxa-2 (4,2)-thiazola-1 (5,3)-indola-6 (1,3)-pyridazinacycloundecaphane-4-yl)-4-methylpiperazine-1-carboxamide] | 5.00 to 6.00
2 | > 5.30 | 5.00 to 6.00 | 5.00 to 6.00 | 5.00 to 6.00 | 5.00 to 6.00 | 5.00 to 6.00 | 6.00 to 7.00 | 5.00 to 6.00 | 6.00 to 7.00 | 5.00 to 6.00 | 5.00 to 6.00 | 5.00 to 6.00 | 5.00 to 6.00 | CCn1c(-c2cccnc2[C@H](C)OC)c2c3cc(ccc31)-c1csc(n1)C[C@H](NC(=O)[C@H](C(C)C)N(C)C(=O)N1CC[C@@H]3CN(C)C[C@@H]31)C(=O)N1CCC[C@H](N1)C(=O)OCC(C)(C)C2 [Compound A470] | 6.00 to 7.00
3 | > 5.30 | 6.00 to 7.00 | 6.00 to 7.00 | 6.00 to 7.00 | 5.00 to 6.00 | 6.00 to 7.00 | 6.00 to 7.00 | 6.00 to 7.00 | 6.00 to 7.00 | 5.00 to 6.00 | 5.00 to 6.00 | 6.00 to 7.00 | 6.00 to 7.00 | CCn1c(-c2cccnc2[C@H](C)OC)c2c3cc(ccc31)-c1cc(O)cc(c1)C[C@H](NC(=O)[C@@H]1CCCCCN1C(C)=O)C(=O)N1CCC[C@H](N1)C(=O)OCC(C)(C)C2 [Compound A176] | 5.00 to 6.00
4 |  | 7.00 to 8.00 | 7.00 to 8.00 | 6.00 to 7.00 | 6.00 to 7.00 | 7.00 to 8.00 | 7.00 to 8.00 | 7.00 to 8.00 | 7.00 to 8.00 | 6.00 to 7.00 | 7.00 to 8.00 | 7.00 to 8.00 | 6.00 to 7.00 | CCn1c(-c2cccnc2[C@H](C)OC)c2c3cc(ccc31)-c1cc(O)cc(c1)C[C@H](NC(=O)[C@H](C(C)C)N(C)C(=O)C1CCC(=O)N1C)C(=O)N1CCC[C@H](N1)C(=O)OCC(C)(C)C2 (stereo partly shown) [Compound A230] | 5.00 to 6.00
5 |  | 6.00 to 7.00 | 5.00 to 6.00 | 5.00 to 6.00 | 5.00 to 6.00 | 5.00 to 6.00 | 6.00 to 7.00 | 6.00 to 7.00 | 6.00 to 7.00 | 5.00 to 6.00 | 5.00 to 6.00 | 6.00 to 7.00 | 6.00 to 7.00 | CCn1c(-c2cccnc2[C@H](C)OC)c2c3cc(ccc31)-c1cc(O)cc(c1)C[C@H](NC(=O)[C@@H]1[C@@H](C)CCN1C(C)=O)C(=O)N1CCC[C@H](N1)C(=O)OCC(C)(C)C2 [Compound A208] | < 5.00

Continued, compound first:

Row | Compound | pEC50 [2] | pIC50 (KRAS G12C) | pIC50 (KRAS G12V) | pIC50 (KRAS G13D) | pIC50 (NRAS Q61R) | pIC50 (NRAS G12C) | pIC50 (KRAS G13C) | pIC50 (NRAS WT) | pIC50 (KRAS Q61H) | pIC50 (KRAS G12D) | pIC50 (KRAS G12S) | pIC50 (KRAS WT) | pIC50 (NRAS Q61K) | pIC50 [1]
6 | CCn1c(-c2cccnc2[C@H](C)OC)c2c3cc(ccc31)-c1csc(n1)C[C@H](NC(=O)[C@H](C(C)C)N(C)C(=O)N1CCOCC13COC3)C(=O)N1CCC[C@H](N1)C(=O)OCC(C)(C)C2 [Compound A474] | > 5.30 | 6.00 to 7.00 | 6.00 to 7.00 | 5.00 to 6.00 | 6.00 to 7.00 | 6.00 to 7.00 | 6.00 to 7.00 | 6.00 to 7.00 | 7.00 to 8.00 | 5.00 to 6.00 | 6.00 to 7.00 | 6.00 to 7.00 | 6.00 to 7.00 | 7.00 to 8.00
7 | CCn1c(-c2cccnc2[C@H](C)OC)c2c3cc(ccc31)-c1cc(c3cn[nH]c3c1)C[C@H](NC(=O)[C@H](C(C)C)N(C)C(C)=O)C(=O)N1CCC[C@H](N1)C(=O)OCC(C)(C)C2 [Compound A388] | > 5.30 | 5.00 to 6.00 | 5.00 to 6.00 | 5.00 to 6.00 | 5.00 to 6.00 | 5.00 to 6.00 | 6.00 to 7.00 | 5.00 to 6.00 | 6.00 to 7.00 | < 5.00 | 5.00 to 6.00 | 5.00 to 6.00 | 5.00 to 6.00 | 5.00 to 6.00
8 | CCn1c(-c2cccnc2[C@H](C)OC)c2c3cc(ccc31)-c1cc(O)cc(c1)C[C@H](NC(=O)CC(C)c1ccncc1)C(=O)N1CCC[C@H](N1)C(=O)OCC(C)(C)C2 (stereo partly shown) [Compound A178] |  | 6.00 to 7.00 and 5.00 to 6.00 | 5.00 to 6.00 | 5.00 to 6.00 | 5.00 to 6.00 and < 5.00 | 5.00 to 6.00 | 6.00 to 7.00 | 6.00 to 7.00 and 5.00 to 6.00 | 6.00 to 7.00 | 5.00 to 6.00 and < 5.00 | 5.00 to 6.00 | 6.00 to 7.00 and 5.00 to 6.00 | 5.00 to 6.00 | < 5.00
9 | CCn1c(-c2cccnc2[C@H](C)OC)c2c3cc(ccc31)-c1csc(n1)C[C@H](NC(=O)[C@H](C(C)C)N(C)C(=O)N1C[C@@H]3[C@@H](C1)OCCN3C)C(=O)N1CCC[C@H](N1)C(=O)OCC(C)(C)C2 [Compound A472] |  | 6.00 to 7.00 | 6.00 to 7.00 | 5.00 to 6.00 | 6.00 to 7.00 | 6.00 to 7.00 | 6.00 to 7.00 | 6.00 to 7.00 | 6.00 to 7.00 | 5.00 to 6.00 | 6.00 to 7.00 | 6.00 to 7.00 | 6.00 to 7.00 | 7.00 to 8.00
